Measured values published in patent US20200253929A1, “TREATMENT OF EPILEPSY” (priority 2017, published 2020).

Assays:
[1] = tested on: PTZ-induced epileptiform brain activity in zebrafish larvae; assay: Zebrafish PTZ seizure model, local field potential recordings (electrophysiology); type: in vivo, Danio rerio; conditions: 10 min recording, vs VHC+PTZ; for reduction of percentage of larvae with PTZ-induced epileptiform activity: MTC and optimal incubation time (2 h azaspirofuran, 18 h pseurotins), 15 min PTZ; for cumulative duration of epileptiform events / number of epileptiform events: MTC and optimal incubation time
Source text: To determine whether azaspirofuran A and pseurotin A2 can ameliorate the PTZ-induced hyperexcitable state of the brain that is characterized by epileptiform discharges, local field potential (LFP) recordings were non-invasively measured from the midbrain (optic tectum) of zebrafish larvae [Zdebik et al. (2013) PLoS One 8, e79765; Britton et al. (2016) In Electroencephalography (EEG): An Introductory Text and Atlas of Normal and Abnormal Findings in Adults, Children, and Infants (St. Louis and Frey, Eds.), Chicago]. To that end larvae were treated with either VHC or test compound (MTC and optimal incubation time were used) followed by a 15 min during exposure to PTZ or VHC prior to the electrophysiology measurements (FIG. 4). […] Thus, both compounds not only ameliorate PTZ-induced seizures but are likely to do so by lowering the PTZ-induced hyperexcitable state of the brain.
Experimental procedure was described before [Zdebik et al. (2013) PLoS One 8, e79765; Sourbron et al. (2017) Front. Pharmac. 8, 191; Copmans et al. (2018) Neurochem. Int. 112, 124-133.]. Non-invasive LFP recordings were measured from the midbrain (optic tectum) of 7 dpf zebrafish larvae pre-incubated with VHC only, PTZ only, compound and VHC, or compound and PTZ. Larvae were incubated for approximately 2 or 18 hours with VHC (1% DMSO) or compound (1% DMSO) in a 100 μL volume. After incubation, 100 μL of VHC (embryo medium) or 40 mM PTZ (dissolved in embryo medium, 20 mM working concentration) was added to the well for 15 min prior to recording. These steps occurred at 28° C., while further manipulation and electrophysiological recordings occurred at room temperature (21° C.). The larva was embedded in 2% low melting point agarose (Invitrogen) and the signal electrode (an electrode inside a soda-glass pipet (1412227, Hilgenberg) pulled with a DMZ Universal Puller (Zeitz, Germany), diameter±20 microns, containing artificial cerebrospinal fluid (ACSF: 124 mM NaCl, 10 mM glucose, 2 mM KCl, 2 mM MgSO4, 2 mM CaCl2, 1.25 mM KH2PO4, and 26 mM NaHCO3, 300-310 mOsmols)) was positioned on the skin covering the optic tectum. A differential extracellular amplifier (DAGAN, USA) amplified the voltage difference between the signal (measured by the signal electrode) and the reference electrode. The differential signal was band pass filtered at 0.3-300 Hz and digitized at 2 kHz via a PCI-6251 interface (National instruments, UK) using WinEDR (John Dempster, University of Strathclyde, UK). A grounding electrode grounded the electrical system. All electrodes were connected with ACSF. Each recording lasted 600 seconds. Manual analysis was completed by quantification of the number, cumulative duration, and mean duration of epileptiform-like events with Clampfit 10.2 software (Molecular Devices Corporation, USA). An electrical discharge was considered epileptiform if it was a poly-spiking event comprising at least 3 spikes with a minimum amplitude of three times the baseline amplitude and a duration of at least 100 milliseconds. Data are expressed as mean±SD for the number and cumulative duration of epileptiform events and as mean±SEM for the mean duration of events.

[2] = molecular target: T1, CYP2C9 (Homo sapiens, UniProt P11712); assay: CYP450 enzyme inhibition assay, CYP2C9; type: in vitro ADME; conditions: human liver microsomes; for IC50: diclofenac probe
T1 construct: containing Human Liver Microsomes (HLM) (0.5 mg/mL); from tissue; host or cells: human liver microsomes
Experimental: Protocol was based on literature [Perez-Del Palacio et al. (2017) Front Pharmacol 8, 202]. Assessment of CYP450 inhibition was conducted in 96-well plate format at 37° C. Test compounds were dissolved in DMSO/acetonitrile (2 μL) and diluted in 98 μL NADPH solution (2 mM). Reactions were started by addition of 100 μL potassium phosphate buffer (200 mM, pH 7.4) containing Human Liver Microsomes (HLM) (0.5 mg/mL). Probe reactions for CYP3A4, CYP2D6 and CYP2C9 were conducted with 50 μM testosterone, 22 μM dextromethorphan and 10 μM diclofenac for 15 min. Reactions were terminated with the addition of a quench solution (90 μL) of acetonitrile containing internal standards for LC-MS/MS determination (60 ppb cortisone, 100 ppb 4′-hydroxydiclofenac 13C6, 60 ppb levallorphan).

[3] = tested on: zebrafish larvae; assay: Zebrafish toxicity evaluation (maximum tolerated concentration); type: in vivo, Danio rerio; conditions: up to 18 hours exposure, 100 μg/mL used where no MTC was reached
Experimental: In case no MTC was reached, 100 μg/mL was used as the test concentration. In line with studies previously reported [Baraban et al. (2005) Neurosci 131, 759-768; Afrikanova et al. (2013) PLoS One 8, e54166], addition of the GABAA-receptor antagonist PTZ to the swimming water of 7 days post-fertilization (dpf) zebrafish larvae strongly elevated larval locomotion (p≤0.001) (FIGS. 2 and 3) as a result of induced seizures (or seizure-like behavior) that were recognized as typical high-speed swimming, whirlpool-like circling, clonus-like seizures, and loss of posture, as previously described in Baraban et al cited above.
Maximum tolerated concentration (MTC) was determined prior to further experiments and used as the highest test concentration. MTC was investigated by exposing 12 larvae of 6 days post-fertilization (dpf) to a range of concentrations in a 100 μL volume during 18 hours. The following parameters were investigated after 2 and 18 hours of exposure: touch response, morphology, posture, edema, signs of necrosis, swim bladder, and heartbeat. […] In case MTC was not reached, 100 μg/mL was used as the highest test concentration.

[4] = molecular target: T2, Nav1.5 channel (Homo sapiens, UniProt Q14524); assay: Cardiotoxicity fluorescence-based assay, Nav1.5 channel; type: cell-based; conditions: HEK293 cells
T2 construct: expressed in transfected cells; host or cells: HEK293
Experimental: Fluorescence-based assays were performed using HEK293 cell lines that stably express the Nav1.5-channel, Cav1.2-channel or hERG K+-channel, using FMP Red Dye (Molecular Devices), calcium-sensitive fluorescent dye Fluo-4 (Invitrogen) and FIuxOR™ reagent (Invitrogen), respectively, and a FLIPR Tetra High-Throughput Cellular Screening System (Molecular Devices), according to manufacturer's protocols (Molecular Devices). Tetrodotoxin (TTX), israpidine and nicarpidine, and astemizole and haloperidol were used as standard sodium channel, calcium channel, and hERG channel blockers. Data were analyzed using Genedata Screener.

T1 sequence (P11712 whole entry): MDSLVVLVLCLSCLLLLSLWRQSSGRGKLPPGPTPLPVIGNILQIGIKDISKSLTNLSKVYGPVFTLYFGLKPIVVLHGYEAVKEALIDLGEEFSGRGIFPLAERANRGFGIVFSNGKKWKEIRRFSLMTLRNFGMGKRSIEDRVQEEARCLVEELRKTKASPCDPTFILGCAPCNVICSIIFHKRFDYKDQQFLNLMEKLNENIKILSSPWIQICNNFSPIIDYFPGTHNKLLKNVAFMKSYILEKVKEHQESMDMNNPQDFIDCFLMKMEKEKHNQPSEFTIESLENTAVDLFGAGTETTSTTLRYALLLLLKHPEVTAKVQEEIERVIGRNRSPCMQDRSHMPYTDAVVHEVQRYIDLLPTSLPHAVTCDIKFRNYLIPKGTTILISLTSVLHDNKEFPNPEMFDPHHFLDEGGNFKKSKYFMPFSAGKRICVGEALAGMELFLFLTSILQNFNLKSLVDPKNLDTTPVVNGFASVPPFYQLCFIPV
T2 sequence (Q14524 whole entry): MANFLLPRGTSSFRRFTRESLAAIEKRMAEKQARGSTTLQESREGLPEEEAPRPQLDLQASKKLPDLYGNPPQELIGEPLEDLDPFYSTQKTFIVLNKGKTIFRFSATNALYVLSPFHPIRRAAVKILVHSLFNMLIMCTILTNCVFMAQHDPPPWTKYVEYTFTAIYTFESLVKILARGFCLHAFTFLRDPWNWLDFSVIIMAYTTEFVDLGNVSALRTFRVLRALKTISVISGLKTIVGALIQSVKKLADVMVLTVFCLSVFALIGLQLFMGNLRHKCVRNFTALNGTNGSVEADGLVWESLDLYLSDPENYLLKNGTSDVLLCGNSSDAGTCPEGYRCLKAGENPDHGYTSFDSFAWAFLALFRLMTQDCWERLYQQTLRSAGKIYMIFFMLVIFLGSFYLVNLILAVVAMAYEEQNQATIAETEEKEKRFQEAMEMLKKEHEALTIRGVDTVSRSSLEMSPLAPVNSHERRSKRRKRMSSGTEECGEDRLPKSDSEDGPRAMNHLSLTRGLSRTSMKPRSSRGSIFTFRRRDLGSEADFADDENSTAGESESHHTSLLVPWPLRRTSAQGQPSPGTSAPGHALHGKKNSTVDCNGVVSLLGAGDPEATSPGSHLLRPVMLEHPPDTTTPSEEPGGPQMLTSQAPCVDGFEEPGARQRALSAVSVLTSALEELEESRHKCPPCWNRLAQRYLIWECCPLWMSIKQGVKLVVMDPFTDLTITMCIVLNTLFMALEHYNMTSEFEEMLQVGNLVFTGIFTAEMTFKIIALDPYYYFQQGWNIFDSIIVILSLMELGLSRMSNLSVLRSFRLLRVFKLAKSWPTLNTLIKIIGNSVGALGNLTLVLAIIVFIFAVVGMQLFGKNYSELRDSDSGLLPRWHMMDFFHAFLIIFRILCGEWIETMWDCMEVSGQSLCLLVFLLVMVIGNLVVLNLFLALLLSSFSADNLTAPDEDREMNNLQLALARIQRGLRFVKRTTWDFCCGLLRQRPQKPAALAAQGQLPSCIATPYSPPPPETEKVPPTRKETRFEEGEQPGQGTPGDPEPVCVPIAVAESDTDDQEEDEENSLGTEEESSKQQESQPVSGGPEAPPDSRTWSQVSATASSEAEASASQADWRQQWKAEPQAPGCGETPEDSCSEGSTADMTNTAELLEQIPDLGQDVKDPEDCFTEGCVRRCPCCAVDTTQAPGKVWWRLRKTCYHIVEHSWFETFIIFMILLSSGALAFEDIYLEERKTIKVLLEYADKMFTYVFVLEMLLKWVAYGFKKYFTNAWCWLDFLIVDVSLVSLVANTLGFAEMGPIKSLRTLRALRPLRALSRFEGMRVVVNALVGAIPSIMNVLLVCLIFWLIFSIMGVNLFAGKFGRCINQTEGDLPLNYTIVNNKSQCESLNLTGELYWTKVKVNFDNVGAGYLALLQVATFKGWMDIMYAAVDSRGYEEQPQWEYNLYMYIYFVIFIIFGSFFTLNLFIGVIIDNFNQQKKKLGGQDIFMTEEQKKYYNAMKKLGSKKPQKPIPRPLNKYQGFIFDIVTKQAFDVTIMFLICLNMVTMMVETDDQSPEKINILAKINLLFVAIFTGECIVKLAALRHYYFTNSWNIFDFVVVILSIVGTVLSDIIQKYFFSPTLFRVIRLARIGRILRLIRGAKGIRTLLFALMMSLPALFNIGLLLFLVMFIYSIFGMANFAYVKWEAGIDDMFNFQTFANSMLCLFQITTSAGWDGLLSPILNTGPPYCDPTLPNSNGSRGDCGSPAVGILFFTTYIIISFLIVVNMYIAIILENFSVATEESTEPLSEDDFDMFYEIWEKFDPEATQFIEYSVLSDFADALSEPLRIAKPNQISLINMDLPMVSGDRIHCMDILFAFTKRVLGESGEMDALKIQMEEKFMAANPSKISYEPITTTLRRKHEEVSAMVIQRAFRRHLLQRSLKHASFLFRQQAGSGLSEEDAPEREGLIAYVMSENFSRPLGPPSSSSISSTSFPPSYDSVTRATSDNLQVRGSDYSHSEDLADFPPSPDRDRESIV

CCc1ccc(C2=C(C)C(=O)C3(O2)C(=O)NC(OC)(C(=O)c2ccccc2)C3O)o1 (stereo not shown) [azaspirofuran A]
reduction of percentage of larvae with PTZ-induced epileptiform activity [1]: ~60%
cumulative duration of epileptiform events [1]: shorter cumulative duration of events
number of epileptiform events [1]: significantly less epileptiform events
CYP2C9, effect [2]: Weak
IC50 [2]: 47.3 µM
MTC (maximum tolerated concentration) [3]: 12.5 µg/mL
Cardiotoxicity Nav1.5 channel, effect [4]: Low
IC50 [4]: 39.1 µM

CC/C=C\[C@H](O)[C@H](O)C1=C(C)C(=O)[C@]2(O1)C(=O)N[C@](OC)(C(=O)c1ccccc1)[C@H]2O [pseurotin A2]
reduction of percentage of larvae with PTZ-induced epileptiform activity [1]: 33%
cumulative duration of epileptiform events [1]: shorter cumulative duration of events
number of epileptiform events [1]: significantly less epileptiform events
CYP2C9, effect [2]: No effect
IC50 [2]: > 88 µM
MTC (maximum tolerated concentration) [3]: 12.5 µg/mL
Cardiotoxicity Nav1.5 channel, effect [4]: No effect
IC50 [4]: > 50 µM
